Values quoted from earlier work in US20140057987A1, “Disinfectant Spray with Indicator” (GENESIS LABORATORIES, INC., priority 2010, published 2014).

Conditions: colour change of indicator

Row | Molecule | Transition pH range
1 | CN(C)c1ccc(N=Nc2ccccc2)cc1 [Methyl yellow] | 2.9-4.0 pH
2 | Cc1cc2nc3ccc(N(C)C)cc3nc2cc1N.Cl [Neutral red] | 6.8-8.0 pH
3 | Cc1cc(O)c(C(C)C)cc1C1(c2cc(C(C)C)c(O)cc2C)OC(=O)c2ccccc21 [Thymolphthalein] | 9.3-10.5 pH
4 | O=S1(=O)OC(c2cc(Br)c(O)c(Br)c2)(c2cc(Br)c(O)c(Br)c2)c2ccccc21 [Bromophenol blue] | 3.0-4.6 pH
5 | O=C(O)c1cc(N=Nc2ccc([N+](=O)[O-])cc2)ccc1O [Alizarine Yellow R] | 10.2-12.0 pH
6 | CN(C)c1ccc(N=Nc2ccc(S(=O)(=O)[O-])cc2)cc1.[Na+] [Methyl orange] | 3.1-4.4 pH
7 | O=C1OC(c2ccc(O)cc2)(c2ccc(O)cc2)c2ccccc21 [Phenolphthalein] | 8.3-10.0 pH
8 | Azolitmin | 4.5-8.3 pH
9 | Cc1cc(C2(c3ccc(O)c(C)c3)OS(=O)(=O)c3ccccc32)ccc1O [Cresol Red] | 7.2-8.8 pH
10 | Cc1c(C2(c3cc(Br)c(O)c(Br)c3C)OS(=O)(=O)c3ccccc32)cc(Br)c(O)c1Br [Bromocresol green] | 3.8-5.4 pH
11 | O=C1OC(c2ccc(O)c3ccccc23)(c2ccc(O)c3ccccc23)c2ccccc21 [Naphtholphthalein] | 7.3-8.7 pH
12 | Nc1c(/N=N/c2ccc(-c3ccc(/N=N/c4cc(S(=O)(=O)O)c5ccccc5c4N)cc3)cc2)cc(S(=O)(=O)O)c2ccccc12 [Congo red] | 3.0-5.0 pH
13 | CN(C)c1ccc(C(=C2C=CC(=[N+](C)C)C=C2)c2ccc(N(C)C)cc2)cc1 [Gentian violet(Methyl violet 10B), Gentian violet] | 0.0-2.0 pH
14 | Cc1c(C2(c3cc(C(C)C)c(O)c(Br)c3C)OS(=O)(=O)c3ccccc32)cc(C(C)C)c(O)c1Br [Bromothymol blue] | 6.0-7.6 pH
15 | Cc1cc(C2(c3cc(C)c(O)c(Br)c3)OS(=O)(=O)c3ccccc32)cc(Br)c1O [Bromocresol purple] | 5.2-6.8 pH

Same assay, conditions: colour change of indicator; high pH color green

Row | Molecule | Transition pH range
16 | CN(C)c1ccc(/N=N/c2ccccc2C(=O)O)cc1 [Methyl red] | 4.5-5.2 pH

Same assay, conditions: colour change of indicator; high pH color yellow

Row | Molecule | Transition pH range
17 | CN(C)c1ccc(/N=N/c2ccccc2C(=O)O)cc1 [Methyl red] | 4.4-6.2 pH

Same assay, conditions: first transition

Row | Molecule | Transition pH range
18 | Cc1cc(O)c(C(C)C)cc1C1(c2cc(C(C)C)c(O)cc2C)OS(=O)(=O)c2ccccc21 [Thymol blue] | 1.2-2.8 pH
19 | CN(C)c1ccc(C(c2ccccc2)c2ccc(N(C)C)cc2)cc1 [Leucomalachite green] | 0.0-2.0 pH

Same assay, conditions: second transition

Row | Molecule | Transition pH range
20 | Cc1cc(O)c(C(C)C)cc1C1(c2cc(C(C)C)c(O)cc2C)OS(=O)(=O)c2ccccc21 [Thymol blue] | 8.0-9.6 pH
21 | CN(C)c1ccc(C(c2ccccc2)c2ccc(N(C)C)cc2)cc1 [Leucomalachite green] | 11.6-14.0 pH
